For experiment [1], the target named is Human recombinant Methionine Aminopeptidase 2 (MetAp2) (Homo sapiens, UniProt P50579). Briefly: fluorometric H-Met-AMC hydrolysis. The experiment is classed as biochemical.
Another experiment concerns MDA-MB 231. Briefly: cells. As to conditions: Homo sapiens, MDA-MB-231, 72 h, read-out: MDA-MB 231.
For another experiment, the system named is MIA PaCa. Briefly: cells. As to conditions: Homo sapiens, MIA PaCa-2, 72 h, read-out: MIA PaCa.
The next experiment deals with 4T1. Description: cells. As to conditions: Mus musculus, 4T1, 72 h, read-out: 4T1.
Another experiment relates to BxPC3. Briefly: cells. As to conditions: Homo sapiens, BXPC-3, 72 h, read-out: BxPC3.
In another experiment the test system is 67nR. Description: cells. As to conditions: 72 h, read-out: 67nR.

Human recombinant Methionine Aminopeptidase 2 (MetAp2), sequence (P50579 2-478): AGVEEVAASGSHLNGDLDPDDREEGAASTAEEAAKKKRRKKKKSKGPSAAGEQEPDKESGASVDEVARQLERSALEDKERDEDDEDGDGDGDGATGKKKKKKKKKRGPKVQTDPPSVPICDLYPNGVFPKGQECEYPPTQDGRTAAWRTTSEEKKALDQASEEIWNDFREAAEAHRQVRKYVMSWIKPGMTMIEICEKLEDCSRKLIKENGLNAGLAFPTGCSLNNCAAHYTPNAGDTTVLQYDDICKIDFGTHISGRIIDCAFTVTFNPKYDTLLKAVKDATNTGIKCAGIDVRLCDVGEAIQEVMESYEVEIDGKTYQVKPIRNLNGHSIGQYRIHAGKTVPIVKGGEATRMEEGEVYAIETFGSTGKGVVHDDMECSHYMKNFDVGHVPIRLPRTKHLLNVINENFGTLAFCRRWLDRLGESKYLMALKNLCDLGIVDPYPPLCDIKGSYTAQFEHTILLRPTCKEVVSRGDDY

With `O=[N+]([O-])c1ccc(OCOCc2ccccc2)c2ncccc12` [compound 9], the IC50 in experiment [1] is 92.1 µM; with MDA-MB 231, > 100 µM; in the experiment with MIA PaCa, 60.2 ± 1.52 µM; in the experiment on 4T1, 25.4 ± 3.1 µM; with BxPC3, 44.1 ± 2.09 µM.

Turning to `O=[N+]([O-])c1ccc(OS(=O)(=O)C(F)(F)F)c2ncccc12` [compound 6], the IC50 in experiment [1] was > 100 µM; in the experiment on MDA-MB 231, 13.8 ± 2.98 µM; in the experiment with MIA PaCa, 9.63 ± 2.35 µM; with 67nR it was 10.3 ± 1.45 µM; with 4T1, 4.13 ± 1.17 µM; in the experiment on BxPC3, 11.7 ± 1.64 µM.

Regarding `CC(C)(C)[Si](C)(C)Oc1ccc([N+](=O)[O-])c2cccnc12` [compound 2], the IC50 turned out to be 4.3 µM in experiment [1]; 19.2 ± 1.52 µM with MDA-MB 231; 10.4 ± 2.26 µM with MIA PaCa; 23.3 ± 1.5 µM with 67nR; 4.92 ± 1.63 µM in the experiment on 4T1; 15.2 ± 2.01 µM in the experiment on BxPC3.

Turning to `C[Si](C)(C)CCOCOc1ccc([N+](=O)[O-])c2cccnc12` [compound 7], the IC50 in experiment [1] came out at 21.1 µM; in the experiment on MDA-MB 231 it was 34.7 ± 2.17 µM; in the experiment with MIA PaCa it was 28.2 ± 3.35 µM; with 4T1, 2.43 ± 1.05 µM; in the experiment with BxPC3, 18.1 ± 2.86 µM.

For the molecule `O=[N+]([O-])c1ccc(O)c2ncccc12` [compound 1, 5-nitroquinolin-8-ol], the IC50 in the experiment on MDA-MB 231 stood at 20.4 ± 1.22 µM; with MIA PaCa, 11.5 ± 2.06 µM; in the experiment with 67nR, 16.8 ± 2.74 µM; with 4T1 it was 4.67 ± 1.13 µM; in the experiment on BxPC3, 13.9 ± 1.77 µM.

Consider `CS(=O)(=O)Oc1ccc([N+](=O)[O-])c2cccnc12` [compound 5], for which the IC50 was 13.1 ± 1.96 µM in the experiment on MDA-MB 231; 13.8 ± 0.85 µM in the experiment on MIA PaCa; 25.2 ± 1.96 µM in the experiment with 67nR; 4.22 ± 0.32 µM with 4T1; 25.6 ± 3.35 µM in the experiment on BxPC3.

Consider `CC(C)(C)[Si](Oc1ccc([N+](=O)[O-])c2cccnc12)(c1ccccc1)c1ccccc1` [compound 4], for which the IC50 was found to be 3.42 µM in experiment [1]; 15.9 ± 1.47 µM in the experiment on MDA-MB 231; 10.4 ± 1.56 µM in the experiment on MIA PaCa; 15.6 ± 2.21 µM in the experiment with 67nR; 4.6 ± 2.41 µM in the experiment with 4T1; 12.8 ± 1.09 µM in the experiment with BxPC3.

For `CC(C)[Si](Oc1ccc([N+](=O)[O-])c2cccnc12)(C(C)C)C(C)C` [compound 3], the IC50 in experiment [1] turned out to be 2.86 µM; with MDA-MB 231, 17.3 ± 1.07 µM; in the experiment with MIA PaCa, 9.71 ± 2.96 µM; in the experiment with 67nR it was 14.4 ± 2.97 µM; with 4T1, 2.76 ± 0.21 µM; in the experiment with BxPC3 it was 16.7 ± 1.73 µM.

Values taken from paper doi:10.1101/2025.10.20.683482v1 (biorxiv, 2025).
